Values of other authors as cited in patent US8293711B2, “Use of natriuretic peptides for treating angioedema syndromes” (Pharis Biotech GmbH, priority 2007, dated 2012).

Experiments:
HEK-293 = details: human embryonic kidney cell line HEK-293; via activation of a cGMP-dependent pathway
[1] = test system: bradykinin-induced edema in the hamster cheek pouch; details: unspecific tyrosine kinase inhibitors
[2] = test system: acute renal failure models

CC[C@H](C)[C@@H]1NC(=O)[C@H](CCCNC(=N)N)NC(=O)[C@H](CC(=O)O)NC(=O)[C@H](CCSC)NC(=O)[C@H](CCCNC(=N)N)NC(=O)CNC(=O)CNC(=O)[C@H](Cc2ccccc2)NC(=O)[C@@H](NC(=O)[C@H](CO)NC(=O)[C@H](CO)NC(=O)[C@H](CCCNC(=N)N)NC(=O)[C@H](CCCNC(=N)N)NC(=O)[C@H](CC(C)C)NC(=O)[C@@H](N)CO)CSSC[C@@H](C(=O)N[C@@H](CC(N)=O)C(=O)N[C@@H](CO)C(=O)N[C@@H](Cc2ccccc2)C(=O)N[C@@H](CCCNC(=N)N)C(=O)N[C@@H](Cc2ccc(O)cc2)C(=O)O)NC(=O)CNC(=O)[C@H](CC(C)C)NC(=O)CNC(=O)[C@H](CO)NC(=O)[C@H](CCC(N)=O)NC(=O)[C@H](C)NC(=O)CNC1=O [ANP, atrial natriuretic peptide]
tyrosine phosphorylation (HEK-293): able to counteract tyrosine phosphorylation

O=c1c(-c2ccc(O)cc2)coc2cc(O)cc(O)c12 [genistein]
bradykinin-mediated effect (edema) [1]: attenuated

N#CC(C#N)=Cc1cc(O)c(O)c(O)c1 [tyrphostin 25]
bradykinin-mediated effect (edema) [1]: attenuated

urodilatin
diuretic and natriuretic effects [2]: strong diuretic and natriuretic effects
tyrosine phosphorylation (HEK-293): able to counteract tyrosine phosphorylation
